The text below walks through data of patent publication US8846928B2 (Portola Pharmaceuticals, Inc., priority 2010, dated 2014).

Each structure is given as a SMILES string.

The target in this test is T1, full length active recombinant SYK enzyme (Homo sapiens, UniProt P43405).
T1 construct: full length active recombinant SYK enzyme (Millipore, Calif.); purchased Millipore
Nature of the test: Inhibition of Syk tyrosine phosphorylation activity (LANCE TR-FRET kinase assay). Type of test: biochemical. As to the method:
Inhibition of Syk Tyrosine Phosphorylation Activity
Potency of candidate molecules for inhibiting Syk tyrosine phosphorylation activity is assessed by measuring the ability of a test compound to inhibit Syk-mediated tyrosine phosphorylation of a Syk-specific substrate.
SYK tyrosine phosphorylation activity is measured using the LANCE™ Technology developed by Perkin Elmer Life and Analytical Sciences (Boston, Mass.). LANCE™ refers to homogeneous time resolved fluorometry applications using techniques such as time-resolved fluorescence resonance energy transfer assay (TR-FRET) (see generally for procedures in Perkin Elmer Application Note—How to Optimize a Tyrosine Kinase Assay Using Time Resolved Fluorescence-Based LANCE Detection, wwww.perkinelmer.com/lifesciences). The assay principle involves detection of a phosphorylated substrate using energy transfer from a phosphospecific europium-labeled antibody to streptavidin-allophycocyanin as an acceptor.
To test the ability of candidate molecules to inhibit SYK tyrosine phosphorylation activity, molecules are reconstituted in 30% DMSO and serially diluted 1:3 with the final dilution containing DMSO in the absence of the candidate molecule. The final DMSO concentration in the assay is 3%. Kinase assays are performed as a two part reaction. […] The second reaction involves termination of the kinase reaction and the simultaneous addition of the detection reagents—europium-labeled anti-phosphotyrosine reagent (Eu-W1024-PY100, Perkin Elmer, Boston, Mass.) and Streptavidin-Allophycocyanin detection reagent (SA-APC, Prozyme, Calif.). The kinase reaction is performed in a black U-bottom 96-well microtitre plate. The final reaction volume is 50 μL and contains a final concentration of 1 nM active SYK enzyme, 550 nM SYK-substrate, and 100 μM ATP diluted in a buffer containing 50 mM Tris pH 7.5, 5 mM MgCl2, and 1 mM DTT. The reaction is allowed to proceed for 1 hour at room temperature. The quench buffer contains 100 mM Tris pH 7.5, 300 mM NaCl2, 20 mM EDTA, 0.02% Brij35, and 0.5% BSA. The detection reagents are added to the reaction mixture at the following dilutions-1:500 for Eu-W1024-PY100 and 1:250 for SA-APC. The kinase reaction is terminated by the addition of 50 μL quench buffer containing the detection reagents. The detection is allowed to proceed for 1 hr at room temperature. Detection of the phosphorylated substrate in the absence and presence of inhibitors is measured in the TR-FRET instrument, Analyst HT (Molecular Probes, Sunnyvale, Calif.) and the condition for measurements are set up using CriterionHost Release 2.0 (Molecular Probes, Sunnyvale, Calif.). The settings used are a follows: excitation 360 nm, emission 665-7.5 nm, beam splitter 350 nm 50/50, flash 100 pulses, delay 60 us, integration 400 us, z-height 2 mm. […] IC50s were derived by non-linear regression analysis. […]
Background: In TR-FRET formats the signal depends on donor and acceptor labels being close together.
What is called IC50 is the concentration that inhibits the measured activity by half. Take `CC[C@H](N)CNc1ccc(C(N)=O)c(Nc2cc(C)ns2)c1` [Example 30, (S)-4-(2-aminobutylamino)-2-(3-methylisothiazol-5-ylamino)benzamide]: the IC50 is 0.1 to 1 µM. With `Cc1cc(Nc2cc(NC[C@H](C)N)ccc2C(N)=O)sn1` [Example 31, (S)-4-(2-aminopropylamino)-2-(3-methylisothiazol-5-ylamino)benzamide] the figure was 0.01 to 0.1 µM.

`Cc1cc(Nc2cc(NC[C@@H](N)CC(C)C)ccc2C(N)=O)sn1` [Example 32, (S)-4-(2-amino-4-methylpentylamino)-2-(3-methylisothiazol-5-ylamino)benzamide]: the IC50 was in the range of 0.1 to 1 µM. With `CC[C@@H](Nc1ccc(C(N)=O)c(Nc2cc(C)ns2)c1)C(N)=O` [Example 33, (R)-4-(1-amino-1-oxobutan-2-ylamino)-2-(3-methylisothiazol-5-ylamino)benzamide] the figure was 0.01 to 0.1 µM. As to `Cc1cc(Nc2cc(N[C@@H](C(N)=O)C3CC3)ccc2C(N)=O)sn1` [Example 34], the IC50 was 0.01 to 0.1 µM. Consider `Cc1cc(Nc2cc(N[C@H](CC3CC3)C(N)=O)ccc2C(N)=O)sn1` [Example 35, (R)-4-(1-amino-3-cyclopropyl-1-oxopropan-2-ylamino)-2-(3-methylisothiazol-5-ylamino)benzamide], for which the IC50 lay in the range of 0.01 to 0.1 µM. In the case of `COc1ccc(C[C@@H](Nc2cc(Nc3cc(C)ns3)c(C(N)=O)cc2F)C(N)=O)cc1` [Example 36, (R)-4-(1-amino-3-(4-methoxyphenyl)-1-oxopropan-2-ylamino)-5-fluoro-2-(3-methylisothiazol-5-ylamino)benzamide] it was 0.01 to 0.1 µM; in that of `Cc1cc(Nc2cc(N[C@H](Cc3cccc(F)c3)C(N)=O)c(F)cc2C(N)=O)sn1` [Example 37, (R)-4-(1-amino-3-(3-fluorophenyl)-1-oxopropan-2-ylamino)-5-fluoro-2-(3-methylisothiazol-5-ylamino)benzamide], 0.01 to 0.1 µM; in that of `Cc1cc(Nc2cc(N[C@H](Cc3ccncc3)C(N)=O)c(F)cc2C(N)=O)sn1` [Example 38, (R)-4-(1-amino-1-oxo-3-(pyridin-4-yl)propan-2-ylamino)-5-fluoro-2-(3-methylisothiazol-5-ylamino)benzamide], 0.1 to 1 µM.

Take `Cc1cc(Nc2cc(N[C@H](Cc3cccnc3)C(N)=O)c(F)cc2C(N)=O)sn1` [Example 39, (R)-4-(1-amino-1-oxo-3-(pyridin-3-yl)propan-2-ylamino)-5-fluoro-2-(3-methylisothiazol-5-ylamino)benzamide]: the IC50 fell in the range of 0.1 to 1 µM. With `COC[C@@H](Nc1cc(Nc2cc(C)ns2)c(C(N)=O)cc1F)C(N)=O` [Example 40, (R)-4-(1-amino-3-methoxy-1-oxopropan-2-ylamino)-5-fluoro-2-(3-methylisothiazol-5-ylamino)benzamide], the IC50 lay within 0.01 to 0.1 µM. Regarding `NC(=O)c1cc(F)c(N[C@@H]2CCCC[C@@H]2N)nc1Nc1cccc(-n2nccn2)c1` [Example 41, 2-(3-(2H-1,2,3-triazol-2-yephenylamino)-6-(1R,2S)-2-aminocyclohexylamino)-5-fluoronicotinamide], the IC50 lay in the range of 0.001 to 0.01 µM. In the case of `NC(=O)c1cc(F)c(N[C@@H]2CCCC[C@@H]2N)nc1Nc1cccc(-n2cncn2)c1` [Example 42, 2-(3-(1H-1,2,4-triazol-1-yl)phenylamino)-6-((1R,2S)-2-aminocyclohexylamino)-5-fluoronicotinamide] it was 0.001 to 0.01 µM; in that of `NC(=O)c1cc(F)c(N[C@@H]2CCCC[C@@H]2N)nc1Nc1cccc(-n2ccnn2)c1` [Example 43], 0.001 to 0.01 µM; in that of `NC(=O)c1cc(F)c(N[C@@H]2CCCC[C@@H]2N)nc1Nc1cccc(-n2cnnn2)c1` [Example 44, 2-(3-(1H-tetrazol-1-yl)phenylamino)-6-((1R,2S)-2-aminocyclohexylamino)-5-fluoronicotinamide], 0.001 to 0.01 µM. With `NC(=O)c1cc(F)c(N[C@@H]2CCCC[C@@H]2N)nc1Nc1cccc(-n2cccn2)c1` [Example 45, 2-(3-(1H-pyrazol-1-yl)phenylamino)-6-((1R,2S)-2-aminocyclohexylamino)-5-fluoronicotinamide] the figure was 0.001 to 0.01 µM; with `NC(=O)c1cc(F)c(N[C@@H]2CCCC[C@@H]2N)nc1Nc1cccc(-n2ccnc2)c1` [Example 46, 2-(3-(1H-imidazol-1-yl)phenylamino)-6-((1R,2S)-2-aminocyclohexylamino)-5-fluoronicotinamide], 0.001 to 0.01 µM. In the case of `NC(=O)c1cc(F)c(N[C@@H]2CCCC[C@@H]2N)nc1Nc1cccc(N2CCCC2)c1` [Example 47, 6-((1R,2S)-2-aminocyclohexylamino)-5-fluoro-2-(3-(pyrrolidin-1-yl)phenylamino)nicotinamide], the IC50 was in the range of 0.001 to 0.01 µM. As for `NC(=O)c1cc(F)c(N[C@@H]2CCCC[C@@H]2N)nc1Nc1cccc(N2CCOCC2)c1` [Example 48, 6-((1R,2S)-2-aminocyclohexylamino)-5-fluoro-2-(3-morpholinophenylamino)nicotinamide], the IC50 was in the range of 0.01 to 0.1 µM. With `NC(=O)c1cc(F)c(N[C@@H]2CCCC[C@@H]2N)nc1Nc1ccc(-n2nccn2)cc1` [Example 49, 2-(4-(2H-1,2,3-triazol-2-yephenylamino)-6-(1R,2S)-2-aminocyclohexylamino)-5-fluoronicotinamide] the figure was 0.01 to 0.1 µM; with `NC(=O)c1cc(F)c(N[C@@H]2CCCC[C@@H]2N)nc1Nc1ccc(-n2cncn2)cc1` [Example 50], 0.001 to 0.01 µM; with `NC(=O)c1cc(F)c(N[C@@H]2CCCC[C@@H]2N)nc1Nc1ccc(-n2ccnc2)cc1` [Example 51, 2-(4-(1H-imidazol-1-yl)phenylamino)-6-((1R,2S)-2-aminocyclohexylamino)-5-fluoronicotinamide], 0.001 to 0.01 µM.

In the case of `NC(=O)c1cc(F)c(N[C@@H]2CCCC[C@@H]2N)nc1Nc1ccc(-n2cccn2)cc1` [Example 52, 2-(4-(1H-pyrazol-1-yl)phenylamino)-6-((1R,2S)-2-aminocyclohexylamino)-5-fluoronicotinamide], the IC50 was 0.001 to 0.01 µM. Regarding `NC(=O)c1cc(F)c(N[C@@H]2CCCC[C@@H]2N)nc1Nc1ccc(N2CCCC2)cc1` [Example 53, 6-((1R,2S)-2-aminocyclohexylamino)-5-fluoro-2-(4-(pyrrolidin-1-yl)phenylamino)nicotinamide], the IC50 was 0.01 to 0.1 µM. In the case of `NC(=O)c1cc(F)c(N[C@@H]2CCCC[C@@H]2N)nc1Nc1ccc(N2CCOCC2)cc1` [Example 54, 6-((1R,2S)-2-aminocyclohexylamino)-5-fluoro-2-(4-morpholinophenylamino)nicotinamide] it was 0.01 to 0.1 µM. In the case of `NC(=O)c1cc(F)c(N[C@@H]2CCCC[C@@H]2N)nc1Nc1cccc(-c2ncccn2)c1` [Example 55, 6-((1R,2S)-2-aminocyclohexylamino)-5-fluoro-2-(3-(pyrimidin-2-yl)phenylamino)nicotinamide] it was 0.001 to 0.01 µM; in that of `NC(=O)c1cc(F)c(N[C@@H]2CCCC[C@@H]2N)nc1Nc1cccc(-c2ccncn2)c1` [Example 56, 6-((1R,2S)-2-aminocyclohexylamino)-5-fluoro-2-(3-(pyrimidin-4-yl)phenylamino)nicotinamide], 0.001 to 0.01 µM. In the case of `NC(=O)c1cc(F)c(N[C@@H]2CCCC[C@@H]2N)nc1Nc1cccc(-c2cncnc2)c1` [Example 57, 6-((1R,2S)-2-aminocyclohexylamino)-5-fluoro-2-(3-(pyrimidin-5-yl)phenylamino)nicotinamide], the IC50 lay within 0.001 to 0.01 µM. As to `NC(=O)c1cc(F)c(N[C@@H]2CCCC[C@@H]2N)nc1Nc1ccc(-c2ncccn2)cc1` [Example 58, 6-((1R,2S)-2-aminocyclohexylamino)-5-fluoro-2-(4-(pyrimidin-2-yl)phenylamino)nicotinamide], the IC50 fell in the range of 0.001 to 0.01 µM. For the compound `NC(=O)c1cc(F)c(N[C@@H]2CCCC[C@@H]2N)nc1Nc1ccc(-c2ccncn2)cc1` [Example 59, 6-(1R,2S)-2-aminocyclohexylamino)-5-fluoro-2-(4-(pyrimidin-4-yephenylamino)nicotinamide], the IC50 lay in the range of 0.001 to 0.01 µM. With `NC(=O)c1cc(F)c(N[C@@H]2CCCC[C@@H]2N)nc1Nc1ccc2ncsc2c1` [Example 60, 6-((1R,2S)-2-aminocyclohexylamino)-2-(benzo[d]thiazol-6-ylamino)-5-fluoronicotinamide] the figure was less than 0.001 µM.
